Test results: patent publication US20250295652A1, “Inhibitors of Molluscum Contagiosum Infection and Methods Using the Same” (priority 2021, published 2025)
Like-named read-outs stand apart in the source and are kept apart here.

Tested on: VV
Experiment: microbe, parasite or virus in culture
Assay type: cell-based, vaccinia virus
[1] = Orthopoxvirus vaccinia, BSC-1, read-out: VV EC50

Row | SMILES | EC50 [1] [µM] | EC50 (read-out: VV EC50) [µM]
1 | CCC(C(=O)Nc1ncc(C(=O)OC)s1)c1ccccc1 (stereo not drawn) [Compound 77, methyl 2-(2-phenylbutanamido)thiazole-5-carboxylate] | 21.4 | 
2 | CCC(C(=O)Nc1cc(C)ns1)c1ccccc1 (stereo not drawn) [Compound 78, N-(3-methylisothiazol-5-yl)-2-phenylbutanamide] | 41.7 | 
3 | Cc1c(C(N)=O)sc(NC(=O)C2CCCC2)c1C#N [Compound 40, 4-cyano-5-(cyclopentanecarboxamido)-3-methylthiophene-2-carboxamide] | 47.4 | 
4 | CCOC(=O)c1sc(NC(=O)C(CC)c2ccccc2)c(C(N)=O)c1C (stereo not drawn) [Compound 19, ethyl 4-carbamoyl-3-methyl-5-(2-phenylbutanamido)thiophene-2-carboxylate] | 31.3 | 
5 | CCOC(=O)c1c(NC(=O)C(CC)c2ccccc2)sc(C)c1CC (stereo not drawn) [Compound 2, ethyl 4-ethyl-5-methyl-2-(2-phenylbutanamido)thiophene-3-carboxylate] | 36.6 | 
6 | Cc1c(C(N)=O)sc(N(C(=O)C2CCCc3ccccc32)C(=O)C2CCCc3ccccc32)c1C#N (stereo not drawn) [Compound 47, 5-[Bis-(1,2,3,4-tetrahydro-naphthalene-1-carbonyl)-amino]-4-cyano-3-methyl-thiophene-2-carboxylic acid amide] | 20 | 
7 | CCC(C(=O)Nc1sc(C(=O)OC)cc1C#N)c1ccccc1 (stereo not drawn) [Compound 82, Methyl 5-(2-phenylbutanamido)-4-cyanothiophene-2-carboxylate] | 11 | 
8 | CCC(C(=O)Nc1cc(C)c(C(=O)OC)s1)c1ccccc1 (stereo not drawn) [Compound 22, 3-Methyl-5-(2-phenyl-butyrylamino)-thiophene-2-carboxylic acid methyl ester] | 26.8 | 
9 | COC(=O)c1c(NC(=O)C2(c3ccccc3)CC2)sc(C(N)=O)c1C [Compound 36, 5-Carbamoyl-4-methyl-2-[(1-phenyl-cyclopropanecarbonyl)-amino]-thiophene-3-carboxylic acid methyl ester] | 14.3 | 
10 | CCOC(=O)c1c(NC(=O)C(CC)c2ccccc2)sc(C(N)=O)c1C (stereo not drawn) [Compound 8, ethyl 5-carbamoyl-4-methyl-2-(2-phenylbutanamido)thiophene-3-carboxylate] | 10.3 | 
11 | CCC(C(=O)Nc1sc(C(=O)N(CC)CC)c(C)c1C(=O)OC)c1ccccc1 (stereo not drawn) [Compound 24, methyl 5-(diethylcarbamoyl)-4-methyl-2-(2-phenylbutanamido)thiophene-3-carboxylate] | 16.4 | 
12 | Cc1c(C(N)=O)sc(NC(=O)C2CCc3cc(Cl)ccc32)c1C#N (stereo not drawn) [Compound 50, 5-[(5-Chloro-indane-1-carbonyl)-amino]-4-cyano-3-methyl-thiophene-2-carboxylic acid amide] | 33 | 
13 | CCC(C(=O)Nc1sc(C(N)=O)c(C)c1C#N)c1ccc([N+](=O)[O-])cc1 (stereo not drawn) [Compound 75, 5-(2-(4-Nitrophenyl)butanamido)-4-cyano-3-methylthiophene-2-carboxamide] | 35 | 
14 | CCOC(=O)c1c(NC(=O)C(CC)c2ccccc2)sc(C(=O)N(C)C)c1C (stereo not drawn) [Compound 5, ethyl 5-(dimethylcarbamoyl)-4-methyl-2-(2-phenylbutanamido)thiophene-3-carboxylate] | 29.7 | 
15 | CCC(C(=O)Nc1sccc1C(N)=O)c1ccccc1 (stereo not drawn) [Compound 31, 2-(2-phenylbutanamido)thiophene-3-carboxamide] | 49.7 | 
16 | CC[C@@H](C(=O)Nc1sc(C(N)=O)c(C)c1C(=O)OC)c1ccccc1 [Compound 17, methyl (R)-5-carbamoyl-4-methyl-2-(2-phenylbutanamido)thiophene-3-carboxylate] |  | 26.8
17 | CCC(C(=O)Nc1sncc1C#N)c1ccccc1 (stereo not drawn) [Compound 90, N-(4-Cyano-isothiazol-5-yl)-2-phenyl-butyramide] | 21.8 | 

Row | SMILES | EC50 [1] [µM] | EC50 (read-out: VV EC50) [µM]
18 | CCC(C(=O)Nc1sc(C(N)=O)c(C)c1C#N)c1ccccc1 (stereo not drawn) [Compound 9, 4-cyano-3-methyl-5-(2-phenylbutanamido)thiophene-2-carboxamide] | 11.3 | 
19 | COC(=O)c1c(NC(=O)C2CCc3ccccc32)sc(C(N)=O)c1C (stereo not drawn) [Compound 35, 5-Carbamoyl-2-[(indane-1-carbonyl)-amino]-4-methyl-thiophene-3-carboxylic acid methyl ester] | 20.4 | 
20 | CCC(C(=O)Nc1scc(C)c1C(=O)OC)c1ccccc1 (stereo not drawn) [Compound 32, 4-Methyl-2-(2-phenyl-butyrylamino)-thiophene-3-carboxylic acid methyl ester] | 32.9 | 
21 | CCOC(=O)c1sc(NC(=O)C(CC)c2ccccc2)cc1C (stereo not drawn) [Compound 72, ethyl 3-methyl-5-(2-phenylbutanamido)thiophene-2-carboxylate] | 19.1 | 
22 | CCC(C(=O)Nc1snc(C)c1C(=O)OC)c1ccccc1 (stereo not drawn) [Compound 89, 3-Methyl-5-(2-phenyl-butyrylamino)-isothiazole-4-carboxylic acid methyl ester] | 29.3 | 
23 | CC[C@@H](C(=O)Nc1sc(C(N)=O)c(C)c1C(=O)OC)c1ccccc1 [Compound 16, methyl (R)-5-carbamoyl-4-methyl-2-(2-phenylbutanamido)thiophene-3-carboxylate] | 16.4 | 
24 | COc1ccc(N2CCN(C(=O)Nc3snnc3C(=O)NCc3ccc(Cl)cc3)CC2)cc1 [Compound 86, N-(4-chlorobenzyl)-5-(4-(4-methoxyphenyl)piperazine-1-carboxamido)-1,2,3-thiadiazole-4-carboxamide] | 32.6 | 
25 | CCC(C(=O)Nc1nc(-c2ccccc2)cs1)c1ccccc1 (stereo not drawn) [Compound 76, 2-phenyl-N-(4-phenylthiazol-2-yl)butanamide] | 18.4 | 
26 | CCC(C(=O)N(C(=O)C(CC)c1ccccc1)c1sc(C)c(C)c1C#N)c1ccccc1 (stereo not drawn) [Compound 39, N-(3-Cyano-4,5-dimethyl-thiophen-2-yl)-2-phenyl-N-(2-phenyl-butyryl)-butyramide] | 11 | 
27 | COc1ccc(CN(Cc2ccc(OC)cc2)C(Cc2ccccc2)C(=O)Nc2sc(C(N)=O)c(C)c2C#N)cc1 (stereo not drawn) [Compound 57, 5-(2-{Bis[(4-methoxyphenyl)methyl]amino}-3-phenylpropanamido)-4-cyano-3-methylthiophene-2-carboxamide] | 20.8 | 
28 | CCC(C(=O)Nc1sc(C(=O)N(CC)CC)c(C)c1C#N)c1ccccc1 (stereo not drawn) [Compound 66, 4-cyano-N,N-diethyl-3-methyl-5-(2-phenylbutanamido)thiophene-2-carboxamide] | 42.2 | 
29 | CCC(C(=O)Nc1cc(C)cs1)c1ccccc1 (stereo not drawn) [Compound 34, N-(4-methyl-thiophen-2-yl)-2-phenyl-butyramide] | 46.7 | 
30 | CC[C@H](C(=O)Nc1sc(C(N)=O)c(C)c1C(=O)OC)c1ccccc1 [Compound 15, methyl (S)-5-carbamoyl-4-methyl-2-(2-phenylbutanamido)thiophene-3-carboxylate] | 17.9 | 
31 | COC(=O)c1c(NC(=O)C(Cc2ccccc2)N2C(=O)c3ccccc3C2=O)sc(C(N)=O)c1C (stereo not drawn) [Compound 33, 5-Carbamoyl-2-[2-(1,3-dioxo-1,3-dihydro-isoindol-2-yl)-3-phenyl-propionylamino]-4-methyl-thiophene-3-carboxylic acid methyl ester] | 43.6 | 
32 | CCC(C(=O)Nc1snc(C)c1C#N)c1ccccc1 (stereo not drawn) [Compound 68, N-(4-Cyano-3-methyl-isothiazol-5-yl)-2-phenyl-butyramide] | 8.6 | 
33 | Cc1nsc(NC(=O)C2CCc3ccccc32)c1C#N (stereo not drawn) [Compound 87, Indan-1-carboxylic acid (4-cyano-3-methyl-isothiazol-5-yl)-amide] | 17 | 
